Assay: Human HepG2 cell viability assay in 384 well format
Format: toxicity, cell-based
Parameters: dose 125 nL, time 70.5 hour; concentration not given beside the values
Settings: HepG2 cells, read-out: Inhibition

SMILES	cytotoxicity at 70.5 h [%]
COc1ccc(Cl)cc1-c1nc(N)nc(N(C)C)n1	-6.28
Cc1cc(NCCN)nc2ccccc12	-11.3
COC1CCCN(Cc2nc(Cc3ccccc3F)no2)C1 (stereo not given)	-5.83
Cc1ccnc(NC(=O)CCNC(=O)c2ccccc2Cl)c1	-1.99
Cc1ccc(OCc2occc2C(=O)O)cc1	-5.9
CCOC(=O)CNC(=O)c1cccnc1Oc1ccc(Cl)cc1	-9.7
COC(=O)c1cnc2c(c(C)nn2C)c1OC	-3.27
NC(=O)C(Cc1ccccc1)NS(=O)(=O)Cc1ccccc1Cl (stereo not given)	7.03
CCn1cnnc1CN(C)C(=O)C1CCC(=O)N(CC2CCCCC2)C1 (stereo not given)	-6.42
NS(=O)(=O)c1cccnc1NCc1ccco1	-4.56
CC(=O)NCCC(=O)NCc1cccnc1-n1cnc2ccccc21	-8.92
CCC(=O)N1CCCc2c(cnn2C)C1	23.9
Cn1ncc2c1CCCN(C(=O)C1CCC1)C2	-2.82
O=C(c1sccc1-n1cnnn1)N1CCC(Cc2ccccc2)CC1	-4.62
CCOc1ccccc1-c1noc(CN(C)Cc2cnn(C)c2)n1	2
COc1ccc(CCCN(C)C(=O)c2cc(C(C)=O)c[nH]2)cc1OC	-8.38
CNC(=O)NC(=O)C(NCc1cccs1)c1ccccc1 (stereo not given)	34.4
COc1ccc(CN(C)C(=O)CSc2nnc(N)s2)c(OC)c1OC	-5.3
CN(CC(=O)NCCc1ccccn1)C(=O)c1cccs1	-19.9
CC1CCN(S(=O)(=O)N2CCc3sccc3C2)CC1	45
COc1ccc(C2C3=C(CCCC3=O)Nc3nc(SC)nc(N)c32)cc1 (stereo not given)	6.58
CC(Sc1nc(N)cc(N)n1)c1nc(C(C)(C)C)no1 (stereo not given)	-2.01
CS(=O)(=O)N1CCN(C(=O)CN2CCCc3c(F)cc(F)cc32)CC1	-3.95

SMILES	cytotoxicity at 70.5 h [%]
COc1ccnc(N2CCN(CC(=O)N3CCOCC3)CC2)n1	2.32
CC(CNC(=O)Nc1ccc(C#N)cc1)N1CCc2ccccc21 (stereo not given)	4.28
CCOC(=O)CCC(=O)NC(C)c1ccc(NC(=O)CC)cc1 (stereo not given)	-3.08
O=C(c1cc(Cl)c(Br)[nH]1)N1CCN(Cc2ccco2)CC1	-6.08
COc1c(Br)cc(Cl)cc1NCc1c(C)noc1C	11.5
O=C(NCc1nnc2n1CCC2)c1cn(-c2cccc(Br)c2)nn1	-6.53
N#Cc1c(F)cccc1N1CCC(NS(=O)(=O)c2cccs2)CC1	13.5
CC(C)c1nc(CN2CCN(C(=O)CN3CCOCC3)CC2)no1	28.7
CN(C)C(CNC(=O)c1nc(N2CCOCC2)ncc1Cl)c1ccco1 (stereo not given)	-19.3
CCCS(=O)(=O)NC(C)C(=O)NCc1ccc(N2CCCC2)nc1 (stereo not given)	-7.44
O=S(=O)(NCc1cn2ccccc2n1)N1CCOCC1	-12.1
CN1CCC(NC(=O)NCc2csc(Br)c2)CC1	-10.7
CN(C)c1nc(N)nc(CN2CCCC2c2ccsc2)n1 (stereo not given)	-7.29
COc1ccccc1OCCNc1snc(Cl)c1C#N	-15.5
O=C(CCNC(=O)c1ccc(Cl)cc1)NCc1nc(C2CC2)no1	19.3
CCN(CC)S(=O)(=O)c1ccc(CCC(=O)NCc2cc(C)on2)cc1	-7.82
Cc1ccsc1C(=O)NC1CCS(=O)(=O)c2ccccc21 (stereo not given)	-5.17
COc1cc(CNCC(O)c2ccc(F)c(F)c2)cc2c1OCO2 (stereo not given)	29.9
Cc1ccc(C(=O)Nc2ccccc2F)n1C	-11.5
Cc1nc(CCNC(=O)NCc2ccc(N(C)C)nc2)cs1	-8.72
COc1ccc(Cl)cc1NCC(=O)NCCNc1cnccn1	-10.9
Cc1cccc(OC2CCN(C(=O)NCc3cc[nH]n3)CC2)c1C	0.923
Cc1nn(CC(O)CN2CCc3ccccc3C2)c(=O)c(C#N)c1C (stereo not given)	-19.9

SMILES	cytotoxicity at 70.5 h [%]
CCOC(=O)CCCNC(=O)CN1CCN(c2ncccn2)CC1	-13.6
N#Cc1cccnc1N1CCN(C(=O)CCC(=O)c2cccs2)CC1	14.6
CCc1c(C(=O)NCC2CCS(=O)(=O)C2)cnn1-c1ccc(C)cc1 (stereo not given)	-20
CCN(CC(=O)NC(C)C)S(=O)(=O)N1CCCCCC1	-5.99
O=C1NCCCCC1Sc1ccc(F)cc1F (stereo not given)	7.77
Cc1cc(=O)[nH]c(-n2nc(-c3ccccc3)cc2N)n1	12.5
COc1ccc2nnc(CCC(=O)Nc3nc4c(s3)CCC4)n2n1	-25.1
CCN1CCN(C(C)CNC(=O)Nc2nnc(C)s2)CC1 (stereo not given)	-10.5
Cc1cc(NC(=O)NCC2CCN(C(C)C)C2)no1 (stereo not given)	-5.36
COc1ccc2oc(C(C)NC(=O)NC3CCN(C)CC3)c(C)c2c1 (stereo not given)	-13.4
CCS(=O)(=O)NCCNc1cc(-n2cccc2)ncn1	-0.787
O=S(=O)(NCCNc1cc(-n2cccc2)ncn1)c1cccs1	-2.52
CS(=O)(=O)N1CCN(c2cc(-n3cccc3)ncn2)CC1	-4.46
CC(=O)OC1CN(c2nc3c(Cl)cccc3s2)C1	-9.84
CC(=O)OC1CN(c2nc3c(C)cccc3s2)C1	-15.1
CNC(=O)c1ccc2c(OC)n(C)nc2c1	-1.72
CN(C)CC1CSCCCN1C(=O)c1cccc(C(F)(F)F)c1 (stereo not given)	3.74
CN(C)CC1CSCCCN1S(=O)(=O)Cc1ccc(C(F)(F)F)cc1 (stereo not given)	-0.0412
Cc1cccc(C(=O)N2CCCSCC2CN2CCCC2)c1 (stereo not given)	-0.415
CSc1ccccc1NC(=O)C1CSc2ncc(C)c(=O)n2C1 (stereo not given)	-10.7
Cc1ccc(-c2cn[nH]c2C2CCCN(c3nccc(N)n3)C2)cc1 (stereo not given)	-1.62
CCn1ncnc1C1CC(=O)NCc2nc3ccccn3c21 (stereo not given)	-3.8
CN(C)C(=O)N1CCN(Cc2ccccc2)[C@@H]2CS(=O)(=O)C[C@@H]21	-7.42

SMILES	cytotoxicity at 70.5 h [%]
CCc1ccc(CN2CCCC(CO)(CCOC)C2)cc1 (stereo not given)	-8.83
CC(C)CN1CCCn2nc(CNC(=O)CCCc3cn[nH]c3)cc2C1	-9.85
CCc1nccc(CN2CCCC(c3nn(C)c(=O)n3CC)C2)n1 (stereo not given)	-3.33
Nc1nccc(N2CCC(Cc3ccccc3Cl)(C(=O)O)CC2)n1	-2.75
NC(=O)NCC(=O)N1C[C@H]2CC[C@@H]1CN(C1Cc3ccccc3C1)C2	-10.1
Cc1ncc(S(C)(=O)=O)c(C2CCCNC2)n1 (stereo not given)	2.69
CCn1c(CN2CCCC2)nnc1C1CCN(Cc2ccc(C)o2)CC1	-5.38
N#Cc1c(C2CC2)cc(-c2ccc(O)cc2)nc1N	1.29
Cn1c(Cn2cccn2)nnc1C1CCN(Cc2cccnc2N)CC1	-0.251
Cc1nc(N2CCCCC2)ncc1C(=O)N1CC(C)(C)[C@@](C)(O)C1	-6.11
Cc1nccc(N2CCC(=O)N(Cc3ccc(F)cc3)C(C(C)C)C2)n1 (stereo not given)	-2.7
O=C(Nc1ccc(F)cc1)N1C[C@H]2CC[C@@H]1CN(Cc1cccnc1)C2	-3.12
OCCOCCN1CCCC1c1nc2cc(F)ccc2[nH]1 (stereo not given)	12
Cc1nn2c(N3CCC(O)C3)cc(-c3ccccc3)nc2c1C (stereo not given)	-5.83
O=C(C1CC(=O)N(C2CCCC2)C1)N1CCN(CCn2cccc2)CC1 (stereo not given)	-5.71
CCOC(=O)C1CCCN(c2ccc(-c3nc(C)no3)cn2)C1 (stereo not given)	-4.38
Cc1ncc(C(=O)N2C[C@H]3CC[C@@H]2CN(S(=O)(=O)N(C)C)C3)c(C)n1	-11.5
Cn1c(Cn2cccn2)nnc1C1CCCN(c2ccncc2F)C1 (stereo not given)	3.69
CN1CC(c2ccccc2)CC12CCN(C(=O)c1ccc(F)cc1)CC2 (stereo not given)	-4.24
CCc1cc(NCCNc2cccnc2)n2nccc2n1	-7.64
Cc1cccc(C(=O)N2CCCCC2c2ccc(CN(C)C)cc2)n1 (stereo not given)	18.3
O=C1CC[C@H]2CN(Cc3ccc(Cl)s3)CC[C@H]2N1CCc1c[nH]cn1	-7.7
CSc1ncc(C(=O)N2C[C@H]3CC[C@@H]2CN(Cc2ccccc2)C3)cn1	-1.13

SMILES	cytotoxicity at 70.5 h [%]
CC(=O)Nc1ccc(CNC2CC(=O)N(Cc3cccc(F)c3)C2)cc1 (stereo not given)	-8.05
CCCn1c(C)c(CC(=O)NC)c2c1CC(C)(C)CC2=O	-6.96
O=C(CCn1cccn1)N1C[C@@H]2CC[C@H](C1)N(Cc1ccccn1)C2=O	-2.38
Cn1ccc2ccc(C(=O)N3CCN(C(=O)N4CCOCC4)CC3)cc21	23.3
Cc1nc(CCCNC(=O)C2CC(=O)N(C(C)(C)C)C2)sc1C (stereo not given)	-7.69
COc1cccc(N2CCN(Cc3ncc[nH]3)CC2=O)c1	-10.6
CC(C)N1CCCC2(CCN(C(=O)CCCn3ccnc3)C2)C1=O (stereo not given)	-12.1
COC(=O)c1cccc(C(=O)N2CCCCC2CCn2ccnc2C)c1 (stereo not given)	-1.17
CCC(=O)N1CCC2(CC1)c1nc[nH]c1CCN2S(C)(=O)=O	-4.48
CCCOCCN1CCC2(CC1)CC(c1ccccc1)C(=O)N2C (stereo not given)	25.1
CCC(CO)N(Cc1ccccn1)C(=O)c1ccc2c(c1)CCO2 (stereo not given)	15
CN1CCN(Cc2nnc(C3CCN(CC4CC4)CC3)n2C)CC1	-2.48
COc1ccc(C(C(=O)O)N2CCCN(C3CCCCC3)CC2)cn1 (stereo not given)	-10.2
Cc1nc(C)c(CC(=O)N2C[C@@H]3CC[C@H](C2)N(CC2CCC2)C3)c(=O)[nH]1	-6.37
COc1ccccc1C1CNC(=O)c2nc(-c3ncc[nH]3)[nH]c2C1 (stereo not given)	-10.6
Cc1ncc(-c2nc3cc(S(=O)(=O)N4CCCC4)ccc3n2C)cn1	-0.434
CCn1nc(C)c(CNC(=O)c2cn(CC3CCCO3)nn2)c1C (stereo not given)	-1.67
COCCN1CCCC(O)(CN2CCN(c3ncccc3C)CC2)C1=O (stereo not given)	-7.68
NCC1CN(c2nc(-c3ccccc3)nc3c2CCNCC3)CCO1 (stereo not given)	3.02
CC(C)N(Cc1ccc(C(=O)O)o1)C(C)C	-7.28
O=C1NCCCCC1NCc1csc(-c2ccc(F)cc2)n1 (stereo not given)	6.14
CC1CCN(CCCNS(=O)(=O)c2cccc(F)c2)CC1	-13.7
c1ccc2c(c1)SCCC2NCc1ccc(N2CCOCC2)cc1 (stereo not given)	-3.16
